Among the data in PubChem BioAssay (NCI) are TGI and GI50 values, retold here.

Several values for one entry are separate records, joined by “and”; a condition that tells them apart may be missing. Equal values may be shown once.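 Dose response: 5 concentrations. Exposure: 48 h. Format: 96-well plates. Endpoint: linear interpolation; highest concentration if not reached. At the GI50, growth is halved. At the TGI there is no net growth.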

Test systems include EKVX NSCLC; IGROV1 ovarian; COLO 205 colon; OVCAR-5 ovarian; RXF 393 renal; HT29 colon; NCI-H226 lung; KM12 colon; SNB-75 CNS; 786-0 renal; HOP-62 NSCLC; SF-295 CNS; SNB-19 CNS; HCT-116 colon; SF-268 CNS; MALME-3M melanoma; HCC-2998 colon; MDA-N; HS 578T breast.
Assay in all cases: growth of human tumour cells (NCI), 48 h

In the case of `O=c1[nH]c(Br)nc2c(N3CCCCC3)c[nH]c12`, the TGI in the experiment with EKVX NSCLC, with IGROV1 ovarian, with COLO 205 colon, with OVCAR-5 ovarian, in the experiment with RXF 393 renal and with HT29 colon was over 100 µM in each case. Also, the TGI in the experiment on NCI-H226 lung, with KM12 colon, in the experiment on SNB-75 CNS, in the experiment on 786-0 renal, in the experiment with HOP-62 NSCLC and in the experiment with SF-295 CNS was over 100 µM in each case. In addition, the TGI in the experiment on SNB-19 CNS, in the experiment on HCT-116 colon, with SF-268 CNS and with MALME-3M melanoma was over 100 µM each time.

As for `COc1cc2c(cc1OC)C(=O)N1CCCC1C(=O)S2` (stereo not given), the TGI in the experiment with EKVX NSCLC, with IGROV1 ovarian, with COLO 205 colon, in the experiment on OVCAR-5 ovarian, in the experiment on RXF 393 renal and with KM12 colon was over 100 µM throughout. Further, the TGI with 786-0 renal, in the experiment on HOP-62 NSCLC, in the experiment with SF-295 CNS, with SNB-19 CNS, with HCT-116 colon and with HCC-2998 colon was over 100 µM throughout. The TGI in the experiment with SF-268 CNS and with MALME-3M melanoma was over 100 µM in each case.

With `CC(C)(C)c1cc2c(O)c(c1)COCc1cc(C(C)(C)C)cc(c1O)COCc1cc(C(C)(C)C)cc(c1O)COC2`, the TGI with EKVX NSCLC, with IGROV1 ovarian, in the experiment on COLO 205 colon, in the experiment with OVCAR-5 ovarian, in the experiment on RXF 393 renal and with NCI-H226 lung was over 100 µM in each case. Further, the TGI with KM12 colon, with SNB-75 CNS, in the experiment with 786-0 renal, in the experiment with HOP-62 NSCLC, in the experiment with SF-295 CNS and with SNB-19 CNS was over 100 µM throughout. Besides, the TGI in the experiment on HCT-116 colon and with HCC-2998 colon was over 100 µM each time.

For the compound `COc1ccc(NC(C)=O)cc1N1C(=O)/C(=C\c2cccc(Oc3ccccc3)c2)SC1c1ccccc1` (stereo not given), the TGI is over 100 µM in the experiment on EKVX NSCLC; 81.9 µM with MDA-N; over 100 µM in the experiment on IGROV1 ovarian; 39.9 µM in the experiment with COLO 205 colon; over 100 µM in the experiment on OVCAR-5 ovarian; over 100 µM in the experiment with RXF 393 renal. The TGI was 45.5 µM in the experiment with HT29 colon; over 100 µM in the experiment with NCI-H226 lung; over 100 µM in the experiment with KM12 colon; over 100 µM in the experiment on SNB-75 CNS; over 100 µM with 786-0 renal; over 100 µM in the experiment on HOP-62 NSCLC. For the same compound, the TGI in the experiment with SF-295 CNS is over 100 µM; in the experiment on SNB-19 CNS it was over 100 µM; in the experiment with HCT-116 colon, 23.8 µM; in the experiment with HCC-2998 colon it was over 100 µM; in the experiment on MALME-3M melanoma, over 100 µM.

Consider `CN1C(=O)C(O)C[C@@H]1c1ccc(F)cc1` (stereo not given in full), for which the TGI in the experiment with EKVX NSCLC, in the experiment with MDA-N, with IGROV1 ovarian, in the experiment on COLO 205 colon, in the experiment with OVCAR-5 ovarian and in the experiment with RXF 393 renal was over 100 µM throughout. Also, the TGI in the experiment on HT29 colon, in the experiment on NCI-H226 lung, in the experiment with 786-0 renal, with HOP-62 NSCLC, with SF-295 CNS and in the experiment on SNB-19 CNS was over 100 µM each time. Besides, the TGI with HCT-116 colon and with HCC-2998 colon was over 100 µM each time.

Take `CCCC(=O)OC1=C(c2ccccc2)Sc2ccccc2-n2cccc21`: the TGI with EKVX NSCLC, with MDA-N, in the experiment on IGROV1 ovarian, in the experiment with COLO 205 colon, in the experiment on RXF 393 renal and with HT29 colon was over 10 µM each time. For the same compound, the TGI with KM12 colon, in the experiment on SNB-75 CNS, with 786-0 renal, with HOP-62 NSCLC, in the experiment with SF-295 CNS and in the experiment with HCC-2998 colon was over 10 µM in each case. Also, the TGI with SF-268 CNS and in the experiment on MALME-3M melanoma was over 10 µM in each case.

Consider `COC1=CC(=O)C2C(C1=O)[C@@H]1c3ccccc3OC[C@H]21` (stereo not given in full), for which the TGI with EKVX NSCLC, in the experiment with COLO 205 colon, with OVCAR-5 ovarian, in the experiment on RXF 393 renal, in the experiment on HT29 colon and in the experiment on NCI-H226 lung was over 100 µM each time. Moreover, the TGI in the experiment on KM12 colon, in the experiment with SNB-75 CNS, with 786-0 renal, in the experiment with HOP-62 NSCLC, in the experiment on SF-295 CNS and with SNB-19 CNS was over 100 µM throughout. The TGI in the experiment on HCT-116 colon, with HCC-2998 colon, with SF-268 CNS and with MALME-3M melanoma was over 100 µM throughout.

On to `O=C(CSCC(=O)N/N=C/c1ccncc1)N/N=C/c1ccncc1`, for which the TGI with EKVX NSCLC, in the experiment on IGROV1 ovarian, in the experiment on OVCAR-5 ovarian, in the experiment on RXF 393 renal, in the experiment with HT29 colon and in the experiment on NCI-H226 lung was over 100 µM in each case. In addition, the TGI in the experiment on KM12 colon, in the experiment with SNB-75 CNS, in the experiment with 786-0 renal, with HOP-62 NSCLC, in the experiment with HS 578T breast and in the experiment with SF-295 CNS was over 100 µM in each case. Besides, the TGI in the experiment on SNB-19 CNS, in the experiment on HCT-116 colon, in the experiment with HCC-2998 colon, in the experiment on SF-268 CNS and in the experiment with MALME-3M melanoma was over 100 µM throughout.

On to `Nc1nc2c(ncn2CC(CO)CC(c2ccccc2)P(=O)(O)O)c(=O)[nH]1` (stereo not given), for which the TGI in the experiment on EKVX NSCLC, in the experiment with IGROV1 ovarian, in the experiment on COLO 205 colon, in the experiment with OVCAR-5 ovarian, in the experiment on RXF 393 renal and in the experiment with HT29 colon was over 100 µM throughout. The TGI in the experiment with NCI-H226 lung, with KM12 colon, in the experiment with SNB-75 CNS, with 786-0 renal, with HOP-62 NSCLC and in the experiment with SF-295 CNS was over 100 µM each time. Further, the TGI in the experiment on SNB-19 CNS, in the experiment on HCT-116 colon, in the experiment on HCC-2998 colon, in the experiment on SF-268 CNS and in the experiment with MALME-3M melanoma was over 100 µM throughout. Besides, the GI50 in the experiment with SNB-75 CNS was 13.2 µM and > 100 µM.
